Laboratory results from ChEMBL document CHEMBL3797088, “Discovery and structure activity relationship study of novel indazole amide inhibitors for extracellular signal-regulated kinase1/2 (ERK1/2)” (Bioorg Med Chem Lett, 2016).
Calls of active or inactive are those of the source. The calls are words filed in the database; no cut-off is given here.

Experiments:
[1] = target: Mitogen-activated protein kinase 1 (Homo sapiens, UniProt P28482); test: Inhibition of human recombinant GST-tagged ERK2 expressed in Escherichia coli using ser/thr 3 Peptide as substrate preincubated for 1 hr measured after 1 hr by Z-LYTE assay
HT-29 = test: Antiproliferative activity against human HT-29 cells harboring B-RAF V600E mutant after 72 hrs by SRB assay; format: functional, cell-based; settings: HT-29, 72 h
[2] = target: Mitogen-activated protein kinase 3 (Homo sapiens, UniProt P27361); test: Inhibition of human recombinant GST-tagged ERK1 expressed in Escherichia coli using ser/thr 3 Peptide as substrate preincubated for 1 hr measured after 1 hr by Z-LYTE assay
[3] = Apparent permeability in human Caco2 cells assessed as Fabs after 95 mins by LC-MS/MS analysis; format: ADME, cell-based; settings: caco-2, 95 min
[4] = Clearance in mouse at 5 mg/kg, po or 1 mg/kg, iv; format: ADME, organism-based; settings: in vivo
[5] = AUC (0 to 24 hrs) in mouse at 5 mg/kg, po; format: ADME, organism-based; parameters: dose 5 mg/kg, time < 24 hr, route oral; settings: in vivo
[6] = Oral bioavailability in mouse at 5 mg/kg; format: ADME, organism-based; settings: in vivo
[7] = target: Insulin-like growth factor 1 receptor (Homo sapiens, UniProt P08069); test: Inhibition of IGF1R (unknown origin) by Z-LYTE assay
[8] = target: Vascular endothelial growth factor receptor 1 (Homo sapiens, UniProt P17948); test: Inhibition of FLT1 (unknown origin) by Z-LYTE assay
[9] = target: Proto-oncogene tyrosine-protein kinase Src (Homo sapiens, UniProt P12931); test: Inhibition of c-Src (unknown origin) by Z-LYTE assay
[10] = target: Hepatocyte growth factor receptor (Homo sapiens, UniProt P08581); test: Inhibition of c-MET (unknown origin) by Z-LYTE assay
[11] = target: Epidermal growth factor receptor (Homo sapiens, UniProt P00533); test: Inhibition of EGFR (unknown origin) by Z-LYTE assay
[12] = target: Vascular endothelial growth factor receptor 2 (Homo sapiens, UniProt P35968); test: Inhibition of KDR (unknown origin) by Z-LYTE assay
[13] = target: ALK tyrosine kinase receptor (Homo sapiens, UniProt Q9UM73); test: Inhibition of ALK (unknown origin) by Z-LYTE assay
Ephrin type-A receptor 2 = Ephrin type-A receptor 2 (Homo sapiens, UniProt P29317); test: Inhibition of EPHA2 (unknown origin) by Z-LYTE assay
[14] = target: Receptor tyrosine-protein kinase erbB-2 (Homo sapiens, UniProt P04626); test: Inhibition of ERBB2 (unknown origin) by Z-LYTE assay
[15] = target: Dual specificity mitogen-activated protein kinase kinase; MEK1/2 (Homo sapiens) (UniProt P36507+Q02750); test: Inhibition of ERK phosphorylation in human HT-29 cells after 2 hrs by Western blot analysis; format: cell-based
[16] = target: Tyrosine-protein kinase ABL1 (Homo sapiens, UniProt P00519); test: Inhibition of ABL (unknown origin) by Z-LYTE assay
[17] = target: Proto-oncogene tyrosine-protein kinase receptor Ret (Homo sapiens, UniProt P07949); test: Inhibition of RET (unknown origin) by Z-LYTE assay
[18] = target: Platelet-derived growth factor receptor beta (Homo sapiens, UniProt P09619); test: Inhibition of PDGFRbeta (unknown origin) by Z-LYTE assay
[19] = target: Mitogen-activated protein kinase; ERK1/ERK2 (Homo sapiens) (UniProt P27361+P28482); test: Inhibition of ERK1/ERK2 in human HT-29 cells assessed as reduction in p90RSK phosphorylation after 2 hrs by Western blot analysis; format: cell-based
[20] = target: Fibroblast growth factor receptor 1 (Homo sapiens, UniProt P11362); test: Inhibition of FGFR1 (unknown origin) by Z-LYTE assay

Sequence of Mitogen-activated protein kinase 1 (P28482 whole entry): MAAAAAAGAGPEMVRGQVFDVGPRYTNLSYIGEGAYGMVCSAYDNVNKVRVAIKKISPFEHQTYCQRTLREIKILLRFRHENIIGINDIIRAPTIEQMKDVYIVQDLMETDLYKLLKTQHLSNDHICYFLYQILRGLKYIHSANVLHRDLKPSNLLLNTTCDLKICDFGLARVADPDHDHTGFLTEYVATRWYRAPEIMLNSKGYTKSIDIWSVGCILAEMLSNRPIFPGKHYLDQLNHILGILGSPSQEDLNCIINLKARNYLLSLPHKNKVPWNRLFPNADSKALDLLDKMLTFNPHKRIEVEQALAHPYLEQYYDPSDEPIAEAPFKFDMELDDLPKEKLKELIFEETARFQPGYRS
Sequence of Mitogen-activated protein kinase 3 (P27361 whole entry): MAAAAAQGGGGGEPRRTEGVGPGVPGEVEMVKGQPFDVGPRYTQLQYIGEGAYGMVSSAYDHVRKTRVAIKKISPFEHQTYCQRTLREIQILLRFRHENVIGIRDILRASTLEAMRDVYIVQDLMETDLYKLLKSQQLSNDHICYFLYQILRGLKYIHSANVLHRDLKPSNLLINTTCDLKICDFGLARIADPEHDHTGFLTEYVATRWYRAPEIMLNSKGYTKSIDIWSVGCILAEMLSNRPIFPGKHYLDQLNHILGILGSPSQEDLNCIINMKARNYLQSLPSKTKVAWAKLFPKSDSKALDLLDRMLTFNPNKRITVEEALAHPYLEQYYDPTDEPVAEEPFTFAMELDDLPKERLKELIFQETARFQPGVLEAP
Sequence of Proto-oncogene tyrosine-protein kinase receptor Ret (P07949 whole entry): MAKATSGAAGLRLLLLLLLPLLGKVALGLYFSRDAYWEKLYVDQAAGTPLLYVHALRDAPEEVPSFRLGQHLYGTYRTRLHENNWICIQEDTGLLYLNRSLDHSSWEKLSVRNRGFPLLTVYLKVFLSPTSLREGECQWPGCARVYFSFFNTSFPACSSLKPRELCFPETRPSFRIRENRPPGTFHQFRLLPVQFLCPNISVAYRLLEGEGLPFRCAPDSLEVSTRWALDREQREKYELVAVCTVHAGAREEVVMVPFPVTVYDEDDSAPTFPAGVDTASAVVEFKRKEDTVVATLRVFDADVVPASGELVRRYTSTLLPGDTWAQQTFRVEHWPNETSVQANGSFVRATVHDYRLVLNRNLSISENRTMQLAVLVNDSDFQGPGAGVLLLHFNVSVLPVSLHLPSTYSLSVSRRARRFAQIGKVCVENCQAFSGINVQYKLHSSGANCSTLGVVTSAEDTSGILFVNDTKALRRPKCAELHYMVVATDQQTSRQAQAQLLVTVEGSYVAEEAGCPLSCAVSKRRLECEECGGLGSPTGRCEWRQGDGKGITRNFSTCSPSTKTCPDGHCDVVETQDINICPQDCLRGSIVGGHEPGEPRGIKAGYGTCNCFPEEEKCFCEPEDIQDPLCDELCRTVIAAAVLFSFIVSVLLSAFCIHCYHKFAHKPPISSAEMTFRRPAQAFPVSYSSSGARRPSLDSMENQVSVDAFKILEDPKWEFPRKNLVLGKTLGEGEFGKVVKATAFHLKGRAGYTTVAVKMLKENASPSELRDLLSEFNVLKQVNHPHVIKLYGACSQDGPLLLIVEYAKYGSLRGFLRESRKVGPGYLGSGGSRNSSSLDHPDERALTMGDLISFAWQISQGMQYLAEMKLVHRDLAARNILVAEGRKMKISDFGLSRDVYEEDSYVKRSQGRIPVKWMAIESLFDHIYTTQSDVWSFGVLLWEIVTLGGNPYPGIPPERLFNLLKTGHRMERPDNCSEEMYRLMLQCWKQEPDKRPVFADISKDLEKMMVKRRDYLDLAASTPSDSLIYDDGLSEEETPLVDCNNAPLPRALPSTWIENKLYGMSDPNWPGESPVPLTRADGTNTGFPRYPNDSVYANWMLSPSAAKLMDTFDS
Sequence of Receptor tyrosine-protein kinase erbB-2 (P04626 whole entry): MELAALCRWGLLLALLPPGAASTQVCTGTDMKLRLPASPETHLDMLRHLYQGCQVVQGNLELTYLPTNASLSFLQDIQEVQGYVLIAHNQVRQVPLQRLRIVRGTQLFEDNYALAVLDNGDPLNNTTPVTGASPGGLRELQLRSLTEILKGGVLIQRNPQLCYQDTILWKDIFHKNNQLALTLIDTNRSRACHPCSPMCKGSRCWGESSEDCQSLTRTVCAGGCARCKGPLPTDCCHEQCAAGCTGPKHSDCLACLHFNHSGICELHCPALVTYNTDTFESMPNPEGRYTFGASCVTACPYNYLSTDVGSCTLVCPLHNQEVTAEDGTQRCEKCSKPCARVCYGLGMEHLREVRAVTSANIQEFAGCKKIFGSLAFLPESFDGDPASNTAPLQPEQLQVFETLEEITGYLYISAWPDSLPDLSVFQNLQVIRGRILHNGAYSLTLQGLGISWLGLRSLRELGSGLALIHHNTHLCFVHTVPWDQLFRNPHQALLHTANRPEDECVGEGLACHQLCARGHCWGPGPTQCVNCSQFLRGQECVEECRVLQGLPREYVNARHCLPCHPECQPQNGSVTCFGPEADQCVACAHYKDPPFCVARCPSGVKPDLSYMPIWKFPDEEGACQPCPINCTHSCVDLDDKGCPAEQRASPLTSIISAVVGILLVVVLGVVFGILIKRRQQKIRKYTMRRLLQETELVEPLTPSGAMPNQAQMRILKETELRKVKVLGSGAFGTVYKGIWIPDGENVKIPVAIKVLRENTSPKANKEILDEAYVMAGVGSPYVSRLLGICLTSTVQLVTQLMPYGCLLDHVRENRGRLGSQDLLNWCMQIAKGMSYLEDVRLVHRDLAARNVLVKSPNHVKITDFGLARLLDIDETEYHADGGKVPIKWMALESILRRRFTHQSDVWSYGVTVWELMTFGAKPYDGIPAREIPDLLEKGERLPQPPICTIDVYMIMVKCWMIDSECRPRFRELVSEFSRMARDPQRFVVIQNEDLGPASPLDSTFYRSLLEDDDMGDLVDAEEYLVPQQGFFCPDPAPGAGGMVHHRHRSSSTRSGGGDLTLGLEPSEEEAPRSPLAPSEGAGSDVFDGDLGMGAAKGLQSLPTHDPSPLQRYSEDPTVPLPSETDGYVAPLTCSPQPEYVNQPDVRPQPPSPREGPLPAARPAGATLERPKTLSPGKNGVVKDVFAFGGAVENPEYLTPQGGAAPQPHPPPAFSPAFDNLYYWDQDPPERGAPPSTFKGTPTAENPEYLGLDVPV
Sequence of ALK tyrosine kinase receptor (Q9UM73 whole entry): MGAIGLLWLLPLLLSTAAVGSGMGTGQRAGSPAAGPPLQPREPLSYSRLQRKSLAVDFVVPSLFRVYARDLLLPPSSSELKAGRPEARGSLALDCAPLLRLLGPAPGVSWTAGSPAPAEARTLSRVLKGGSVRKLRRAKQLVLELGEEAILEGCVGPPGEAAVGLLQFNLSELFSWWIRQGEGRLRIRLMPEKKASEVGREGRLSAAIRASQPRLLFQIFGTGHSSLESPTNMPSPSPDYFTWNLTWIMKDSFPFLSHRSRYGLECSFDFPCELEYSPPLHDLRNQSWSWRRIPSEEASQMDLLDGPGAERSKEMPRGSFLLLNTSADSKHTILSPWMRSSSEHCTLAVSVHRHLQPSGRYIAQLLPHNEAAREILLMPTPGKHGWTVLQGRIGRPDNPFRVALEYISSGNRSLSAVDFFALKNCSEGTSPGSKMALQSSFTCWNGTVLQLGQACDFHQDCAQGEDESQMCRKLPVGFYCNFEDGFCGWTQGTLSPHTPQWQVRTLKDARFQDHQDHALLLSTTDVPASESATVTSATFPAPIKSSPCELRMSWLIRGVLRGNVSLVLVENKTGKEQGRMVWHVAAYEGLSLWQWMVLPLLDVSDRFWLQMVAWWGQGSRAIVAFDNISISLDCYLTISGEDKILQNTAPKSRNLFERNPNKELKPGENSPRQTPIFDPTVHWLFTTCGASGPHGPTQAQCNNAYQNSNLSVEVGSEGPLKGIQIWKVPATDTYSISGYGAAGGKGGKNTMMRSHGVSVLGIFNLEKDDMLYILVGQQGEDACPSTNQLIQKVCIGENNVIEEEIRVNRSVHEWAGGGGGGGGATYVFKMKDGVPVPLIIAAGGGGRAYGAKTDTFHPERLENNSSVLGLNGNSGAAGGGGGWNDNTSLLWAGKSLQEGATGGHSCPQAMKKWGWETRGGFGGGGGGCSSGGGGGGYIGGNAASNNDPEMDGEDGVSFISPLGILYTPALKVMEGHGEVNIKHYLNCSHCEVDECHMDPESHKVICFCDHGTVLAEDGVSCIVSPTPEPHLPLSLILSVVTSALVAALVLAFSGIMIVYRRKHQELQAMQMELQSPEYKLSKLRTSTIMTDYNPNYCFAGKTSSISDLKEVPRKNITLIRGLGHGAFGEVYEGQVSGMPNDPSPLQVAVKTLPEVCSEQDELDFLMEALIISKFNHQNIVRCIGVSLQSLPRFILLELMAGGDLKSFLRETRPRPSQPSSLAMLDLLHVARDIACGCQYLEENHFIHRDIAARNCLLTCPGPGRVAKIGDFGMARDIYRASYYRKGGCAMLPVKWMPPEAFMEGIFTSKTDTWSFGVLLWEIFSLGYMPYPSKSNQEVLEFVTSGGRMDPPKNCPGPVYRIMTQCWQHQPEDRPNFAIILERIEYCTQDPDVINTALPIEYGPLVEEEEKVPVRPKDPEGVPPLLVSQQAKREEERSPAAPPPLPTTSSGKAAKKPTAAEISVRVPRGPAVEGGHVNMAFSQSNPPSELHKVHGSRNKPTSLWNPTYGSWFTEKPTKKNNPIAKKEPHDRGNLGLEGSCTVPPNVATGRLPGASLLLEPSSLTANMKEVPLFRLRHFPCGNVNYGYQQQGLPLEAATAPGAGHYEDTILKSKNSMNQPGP

## CC(C)CC(NC(=O)c1ccc2[nH]nc(-c3ccncc3)c2c1)c1cccc(Cl)c1 (stereo not given)
[1]
  IC50: > 2000 nM
HT-29
  IC50: 7100 nM

## O=C(NC(CO)c1cc(Cl)cc(Cl)c1)c1ccc2[nH]nc(-c3ccncc3)c2c1 (stereo not given)
[1]
  IC50: 61.1 nM
HT-29
  IC50: 3400 nM

## O=C(NCCc1cccc(Cl)c1)c1ccc2[nH]nc(-c3ccncc3)c2c1
[1]
  IC50: 425 nM
HT-29
  IC50: 15300 nM

## O=C(N[C@H](CO)c1cccc(Cl)c1)c1ccc2[nH]nc(-c3ccncc3)c2c1
[1]
  IC50: 7 nM
[2]
  IC50: 26.3 nM
HT-29
  IC50: 1900 nM

## CC(CNC(=O)c1ccc2[nH]nc(-c3ccncc3)c2c1)Oc1ccccc1 (stereo not given)
[1]
  IC50: 38.6 nM
[2]
  IC50: 128 nM
HT-29
  IC50: 6000 nM

## O=C(NCc1ccccc1)c1ccc2[nH]nc(-c3ccncc3)c2c1
[1]
  IC50: 50.6 nM
[2]
  IC50: 106 nM
HT-29
  IC50: 13300 nM

## Cc1cc(-c2n[nH]c3ccc(C(=O)NCc4c(Cl)cnc(Cl)c4Cl)cc23)ccn1
[1]
  IC50: 7.9 nM
[2]
  IC50: 16.7 nM
HT-29
  IC50: 1100 nM

## Cc1cc(-c2n[nH]c3ccc(C(=O)N[C@H](C)c4c(Cl)cccc4Cl)cc23)ccn1
[1]
  IC50: 632 nM
HT-29
  IC50: 10700 nM

## O=C(NCc1ccccc1Cl)c1ccc2[nH]nc(-c3ccncc3)c2c1
[1]
  IC50: 31.3 nM
[2]
  IC50: 46.3 nM
HT-29
  IC50: 2800 nM

## O=C(NC(CO)c1cccc(Cl)c1)c1ccc2[nH]nc(-c3ccc(O)c(F)c3)c2c1 (stereo not given)
[1]
  IC50: 32.9 nM
[2]
  IC50: 111 nM
HT-29
  IC50: 2500 nM

## O=C(NCc1c(Cl)cncc1Cl)c1ccc2[nH]nc(-c3ccncc3)c2c1
[1]
  IC50: 9.3 nM
[2]
  IC50: 55.5 nM
[3]
  Fabs: 99%
HT-29
  IC50: 6100 nM

## Cc1cc(-c2n[nH]c3ccc(C(=O)NC(CO)c4cccc(Cl)c4)cc23)ccn1 (stereo not given)
[1]
  IC50: 17.9 nM
[2]
  IC50: 53.4 nM
HT-29
  IC50: 2400 nM

## CC(C)Nc1cc(-c2c[nH]c(C(=O)N[C@H](CO)c3ccccc3)c2)c(Cl)cn1
[1]
  IC50: 15.9 nM
HT-29
  IC50: 1600 nM

## O=C(NC(CO)c1cccc(Cl)c1)c1ccc2[nH]nc(-c3ccccc3)c2c1 (stereo not given)
[1]
  IC50: 276 nM
HT-29
  IC50: 6000 nM

## O=C(NCCCc1ccccc1)c1ccc2[nH]nc(-c3ccncc3)c2c1
[1]
  IC50: 33.8 nM
[2]
  IC50: 42.9 nM
HT-29
  IC50: 4500 nM

## O=C(N[C@@H](CO)c1cccc(Cl)c1)c1ccc2[nH]nc(-c3ccncc3)c2c1
[1]
  IC50: 219 nM
[2]
  IC50: 833 nM
HT-29
  IC50: 16500 nM

## O=C(NCc1c(Cl)cccc1Cl)c1ccc2[nH]nc(-c3ccncc3)c2c1
[1]
  IC50: 154 nM
HT-29
  IC50: 8400 nM

## O=C(NCCNc1ccccc1)c1ccc2[nH]nc(-c3ccncc3)c2c1
[1]
  IC50: 139 nM
HT-29
  IC50: 6700 nM

## CC(CNC(=O)c1ccc2[nH]nc(-c3ccncc3)c2c1)OCc1ccccc1 (stereo not given)
[1]
  IC50: 88.7 nM
HT-29
  IC50: 3700 nM

## O=C(NCc1ccnc(Cl)c1)c1ccc2[nH]nc(-c3ccncc3)c2c1
[1]
  IC50: 22.5 nM
[2]
  IC50: 26.4 nM
HT-29
  IC50: 9400 nM

## O=C(NC(CO)c1cccc(Cl)c1)c1ccc2[nH]nc(C3CCOCC3)c2c1 (stereo not given)
[1]
  IC50: 297 nM
HT-29
  IC50: 11500 nM

## O=C(NCCOc1ccccc1)c1ccc2[nH]nc(-c3ccncc3)c2c1
[1]
  IC50: 63.3 nM
HT-29
  IC50: 9100 nM

## O=C(NCc1cccc(Cl)c1)c1ccc2[nH]nc(-c3ccncc3)c2c1
[1]
  IC50: 12.6 nM
[2]
  IC50: 74.2 nM
HT-29
  IC50: 2300 nM

## O=C(NCCc1ccccc1)c1ccc2[nH]nc(-c3ccncc3)c2c1
[1]
  IC50: 19.4 nM
[2]
  IC50: 38.7 nM
HT-29
  IC50: 3300 nM

## CC(NC(=O)c1ccc2[nH]nc(-c3cc(F)c(O)c(F)c3)c2c1)c1cccc(Cl)c1 (stereo not given)
[1]
  IC50: 22.4 nM
[2]
  IC50: 32.3 nM
HT-29
  IC50: 3300 nM

## Cc1cc(-c2n[nH]c3ccc(C(=O)N[C@@H](C)c4c(Cl)cccc4Cl)cc23)ccn1
[1]
  IC50: 9.5 nM
[2]
  IC50: 19.4 nM
HT-29
  IC50: 480 nM

## Cc1cc(-c2n[nH]c3ccc(C(=O)NC(C)c4cccc(Cl)c4)cc23)cc(C)n1 (stereo not given)
[1]
  IC50: 110 nM
[4]
  clearance: 42 mL/min/kg
[5]
  AUC(0-t) at 24 h: 162 ng·h/mL
HT-29
  IC50: 3800 nM
[6]
  bioavailability: 8%

## Cc1cc(-c2n[nH]c3ccc(C(=O)NC(C)c4c(Cl)cncc4Cl)cc23)ccn1 (stereo not given)
[7]
  IC50: > 1000 nM
[1]
  IC50: 16.7 nM
[2]
  IC50: 29.3 nM
[8]
  IC50: > 1000 nM
[4]
  clearance: 163 mL/min/kg
[9]
  IC50: > 1000 nM
[10]
  IC50: > 1000 nM
[11]
  IC50: > 1000 nM
[12]
  IC50: > 1000 nM
[13]
  IC50: > 1000 nM
Ephrin type-A receptor 2
  IC50: > 1000 nM
[14]
  IC50: > 1000 nM
[15]
  inhibition: inactive
[5]
  AUC(0-t) at 24 h: 61 ng·h/mL
[16]
  IC50: > 1000 nM
HT-29
  IC50: 350 nM
[17]
  IC50: > 1000 nM
[6]
  bioavailability: 12%
[18]
  IC50: > 1000 nM
[19]
  inhibition: Dose-dependent effect
[20]
  IC50: > 1000 nM

## Nc1cc(-c2n[nH]c3ccc(C(=O)NC(CO)c4cccc(Cl)c4)cc23)ccn1 (stereo not given)
[1]
  IC50: 15.6 nM
[2]
  IC50: 66.9 nM
HT-29
  IC50: 20900 nM

## CCC(NC(=O)c1ccc2[nH]nc(-c3ccncc3)c2c1)c1cccc(Cl)c1 (stereo not given)
[1]
  IC50: 58.9 nM
[2]
  IC50: 78.7 nM
HT-29
  IC50: 1500 nM

## CC(NC(=O)c1ccc2[nH]nc(-c3ccncc3)c2c1)c1cccc(Cl)c1 (stereo not given)
[7]
  IC50: > 1000 nM
[1]
  IC50: 53.1 nM
[2]
  IC50: 154 nM
[8]
  IC50: > 1000 nM
[9]
  IC50: > 1000 nM
[10]
  IC50: > 1000 nM
[11]
  IC50: > 1000 nM
[12]
  IC50: > 1000 nM
[13]
  IC50: > 1000 nM
Ephrin type-A receptor 2
  IC50: > 1000 nM
[14]
  IC50: > 1000 nM
[16]
  IC50: > 1000 nM
HT-29
  IC50: 900 nM
[17]
  IC50: > 1000 nM
[18]
  IC50: > 1000 nM
[20]
  IC50: > 1000 nM

## O=C(NCc1ccc(Cl)c(F)c1Cl)c1ccc2[nH]nc(-c3ccncc3)c2c1
[1]
  IC50: 11.9 nM
[2]
  IC50: 29.2 nM
HT-29
  IC50: 1500 nM

## Cc1cc(-c2n[nH]c3ccc(C(=O)NC(C)c4ccncc4)cc23)ccn1 (stereo not given)
[1]
  IC50: 226 nM
HT-29
  IC50: 10400 nM

## CC(NC(=O)c1ccc2[nH]nc(-c3ccncc3)c2c1)c1ccccc1Cl (stereo not given)
[1]
  IC50: 16.7 nM
[2]
  IC50: 35.9 nM
HT-29
  IC50: 3500 nM

## Cc1cc(-c2n[nH]c3ccc(C(=O)NC(C)c4c(Cl)cnc(Cl)c4Cl)cc23)ccn1 (stereo not given)
[1]
  IC50: 13.2 nM
[2]
  IC50: 22.2 nM
[15]
  inhibition: inactive
HT-29
  IC50: 713 nM
[19]
  inhibition: Dose-dependent effect

## O=C(NC(CO)c1cccc(Cl)c1)c1ccc2[nH]nc(-c3ccncc3)c2c1 (stereo not given)
[1]
  IC50: 24.1 nM
[2]
  IC50: 72.4 nM
[3]
  Fabs: 69%
HT-29
  IC50: 5500 nM

## C[C@H](NC(=O)c1ccc2[nH]nc(-c3ccncc3)c2c1)c1cccc(Cl)c1
[1]
  IC50: 469 nM
HT-29
  IC50: 7500 nM
